Laboratory results published in paper PMC7182600 (Influenza and Other Respiratory Viruses, 2020).
Values joined by “and” are separate entries in the source; they are usually repeats but may differ in a detail not shown here. Equal entries are not always repeated.

Target: NA of B/Tokyo/UT‐AC032/2018 (G407S) (Influenza B virus, UniProt A0A1W5M8K7, G407S)
Type: biochemical

Molecule | susceptibility to NA inhibitor (in words) | fold differences in IC50 | IC50 (read-out: IC50 values of NA inhibitors)
[H]/N=C(\N)N[C@H]1C=C(C(=O)O)O[C@@H]([C@H](OC)[C@H](O)CO)[C@@H]1NC(C)=O [Laninamivir] | marked reduction in susceptibility |  | 
CCC(CC)O[C@@H]1C=C(C(=O)O)C[C@H](N)[C@H]1NC(C)=O [Oseltamivir carboxylate] | moderately reduced susceptibility |  | 
CC(=O)N[C@H]1[C@H]([C@H](O)[C@H](O)CO)OC(C(=O)O)=C[C@@H]1N=C(N)N [Zanamivir] | marked reduction in susceptibility |  | 
Peramivir | marked reduction in susceptibility | 64 fold and 32.1 ± 12.9 (64.2) fold | 32.1 nM
